Measured values published in patent US20130196320A1, “METHOD FOR IMPROVING CLEAVAGE OF DNA BY ENDONUCLEASE SENSITIVE TO METHYLATION” (CELLECTIS, priority 2010, published 2013).

B1: XPC4: engineered meganuclease (SEQ ID NO: 2) designed to cleave xeroderma pigmentosum group C gene (XPC) (protein)
chain: MANTKYNEEFLLYLAGFVDGDGSIIAQIKPNQSHKFKHALQLTFKVTQKTQRRWFLDKLVDEIGVGYVQDSGSVSNYILSEIKPLHNFLTQLQPFLELKQKQANLALKIIEQLPSAKESPDKFLEVCTWVDQVAALNDSKTRKTTSETVRAVLDSLSEKKKSSPAAGGSDKYNQALSKYNQALSKYNQALSGGGGSNKKFLLYLAGFVDSDGSIIAQIKPNQSHKFKHQLSLAFQVTQKTQRRWFLDKLVDRIGVGYVRDRGSVSDYILSKIKPLHNFLTQLQPFLKLKQKQANLVLKIIEQLPSAKESPDKFLEVCTWVDQVAALNDSKTRKTTSETVRAVLDSLSEKKKSSP

How the values were obtained:
[1] = tested on: RAG target in human RAG1 gene, 293H cells; experiment: Meganuclease-induced mutagenesis assay at RAG recognition site; format: cell-based; conditions: Empty vector, 1 μM 5-aza-2′-deoxycytidine, RAG locus
Procedure: The human 293H cells (ATCC) were plated at a density of 1.2×10^6 cells per 10 cm dish in complete medium (DMEM supplemented with 2 mM L-glutamine, penicillin (100 IU/ml), streptomycin (100 μg/ml), amphotericin B (Fongizone: 0.25 μg/ml, Invitrogen-Life Science) and 10% FBS). The cells were pre-treated with 5-aza-deoxycytidine at 0.2 μM or 1 μM, 48 hours before transfection and the treatment was maintained 48 hours post-transfection. The medium was changed every day. The cells were transfected with 3 μg of DNA plasmids encoding meganuclease for RAG or 2.5 μg of each monomer CAPNS1 using Lipofectamine 2000 transfection reagent (Invitrogen) according to the manufacturer's protocol.
The efficiency of the meganuclease to promote mutagenesis at its endogenous recognition site was evaluated by sequencing the DNA surrounding the meganuclease cleavage site. Two days post-transfection, genomic DNA was extracted. 200 ng of genomic DNA were used to amplify (PCR amplification) the endogenous locus surrounding the meganuclease cleavage site. PCR amplification is performed to obtain a fragment flanked by specific adaptor sequences [adaptor A: 5′-[…]-NNNN-3′(SEQ ID NO: 46) and adaptor B, 5′-[…]-3′ (SEQ ID NO: 47)] provided by the company offering sequencing service (GATC Biotech AG, Germany) on the 454 sequencing system (454 Life Sciences). The primers sequences used for PCR amplification were:
RAG_F1: 5′-[…]-NNNN-[…] (SEQ ID NO: 57) and
RAG_R1: 5′-[…]-[…]-3′ (SEQ ID NO: 58) and CAPNS1_J3: 5′-[…]-NNNN-[…] (SEQ ID NO: 59) and CAPNS1_R3: 5′-[…]-[…]-3′ (SEQ ID NO: 60). Sequences specific to the locus are underlined. The sequence NNNN in primer F1 is a Barcode sequence (Tag) needed to link the sequence with a PCR product. The percentage of PCR fragments carrying insertion or deletion at the meganuclease cleavage site is related to the mutagenesis induced by the meganuclease through NHEJ pathway in a cell population, and therefore correlates with the meganuclease activity at its endogenous recognition site. 5000 to 10000 sequences were analyzed per conditions.

[2] = target: XPC4.1 DNA target; experiment: In vitro binding assay, fluorescence anisotropy of fluorescein-labeled XPC4.1 duplex
Procedure: FIG. 7: Spectrofluorimetric titration of fluorescein-labeled XPC4.1 by XPC4. 50 nM of XPC4.1 duplex was incubated with increasing concentrations of XPC4 (from […]) in binding buffer (10 mM Tris-HCl, 150 mM NaCl, 10 mM CaCl2, 10 mM DTT, pH8) at 25° C. After 30 minutes incubation, the fluorescence anisotropy of the mixture was recorded with a Pherastar Plus (BMG Labtech) operating in fluorescence polarization end point mode with excitation and emission wavelengths set to 495 and 520 nm respectively. Normalized fluorescence anisotropy is plotted as a function of XPC4 concentration. Apparent dissociation constant were determined by fitting raw data by an hyperbolic function (Ax=(A∞*[Meganuclease])/(Kd+[Meganuclease]) with Ax, the fluorescence anisotropy value obtained at a given meganuclease concentration, A∞ the fluorescence anisotropy value obtained at saturating concentration of meganuclease and Kd the dissociation constant of the equilibrium studied).
Fluorescein labeled C1234 oligonucleotides were synthesized and HPLC-purified by Eurogentec. […] C 1234 duplex and fluorescein final concentrations were assessed by spectrophotometry using their respective extinction coefficients ε260nm=62900 M^−1 cm^−1 and ε495nm=83000 M^−1 cm^−1. […]

Molecule | mutagenesis, PCR fragments carrying a mutation [1] [%] | mutagenesis, PCR fragments carrying a mutation ([1]; listed as 5-aza-2′-deoxycytidine) [%] | Kd ([2]; XPC4.1_Me −11a/−10b & +10a/+11b (fully methylated)) [nM] | Kd ([2]; unmethylated XPC4.1) [nM]
Nc1ncn([C@H]2C[C@H](O)[C@@H](CO)O2)c(=O)n1 [5-aza-2′deoxycytidine, reference compound] | 0.04 | 0.04 ± 0.05 |  | 
B1 |  |  | 127 ± 22 | 108 ± 21
